Data taken from patent US10517854B2, “Dosing regiments of celgosivir for the treatment of dengue” (60 Degrees Pharmaceuticals, LLC, priority 2013, dated 2019).
pEC50: −log10 of the molar value. Read-outs that look alike come from different tables or passages of the source.

Assays:
[1] = cited from earlier work
[2] = tested on: DENV2 in THP-1 human monocytes; assay: ADE infection of human monocytes (THP-1), plaque assay; assay type: cell-based; details: Dengue virus, THP-1, DENV2 + 4G2 antibody, 48 hours, read-out: EC50, suppression of viral replication under ADE condition
Method: The activity of celgosivir in infected human monocytes, one of the primary circulating cell types infected by dengue virus, was examined, THP-1 cells were grown in RPMI-1640 maintenance medium containing 10% fetal calf serum and 1% Penicillin-streptomycin and cultured in 37° C. incubator supplemented with 5% CO2. For ADE infection in THP-1 cells, virus (DENV2, MOI-10) was mixed with sub-neutralizing concentration of humanized 4G2 monoclonal antibody (0.05 μg/0.5 ml) and allowed to incubate on ice for 1 hr in the serum free medium, to allow immune complex formations. The immune complex was then added on to THP-1 (1×10^5) cells per well in a 24 well plate and further incubated for 2 hours at 37° C. incubator. An excess unbound immune complex was then removed by spinning cells at 1000 rpm for 5 min and then cells were supplemented with complete growth maintenance medium. For drug testing in the ADE condition, cells were mock (untreated) or celgosivir-treated for 48 hours, and finally media supernatant was collected for plaque assay analysis.

[3] = Population PK in dengue fever patients (NONMEM, predicted NCA parameters); assay type: in vivo, human; details: 400 mg loading dose then 200 mg every 12 hours for 9 doses
Method: Population pharmacokinetic (PK) analysis of castanospermine plasma concentration data after administration of celgosivir was performed using the non-linear mixed effects modelling software NONMEM (version 7.2.0). (16) Pharmacokinetic parameters were estimated using the first order conditional estimation method (FOCE) with eta-epsilon interaction. Due to limited data during the input phase, first-order absorption/formation of castanospermine was assumed. Between-subject variability was assumed to be log-nomally distributed. Model development was guided by objective function value (OFV), precision of the parameter estimates, inspection of standard goodness of lit plots and scientific plausability. The emperical Bayes estimates from the final model were used to predict individual concentrations for a standard saturated sampling design (i.e., samples collected at 0, 0.25, 0.5, 1, 1.5, 2, 4, 6 and 12 hours post-dose)) after the first dose (400 mg) and dose 9 (day 5; 200 mg). […] The NCA parameter values were derived using the statistical analysis software R (version 3.0.1). (17) NCA parameters after dose 9 were only determined for subject who received this dose. […]

[4] = cited from earlier work
[5] = cited from earlier work; for AUCss / Cmin,ss / t1/2 / tmax: HIV-positive patients
[6] = tested on: DENV2 (TSV01 strain); assay: Cell-based flaviviral immunodetection assay (CFI), DENV2; details: Dengue virus, DENV2, BHK-21, 48 h, DENV2, BHK21 cells
Method: BHK21 cells were seeded at 1.3×104 in 96-well plate and incubated overnight at 37° C. in 5% CO2 incubator. Confluent monolayer of BHK21 cells were infected with DENV2 (TSV01 strain) at an MOI (multiplicity of infection) 0.3 in the presence of various concentrations of test compounds and incubated for 1 hour at 37° C. in 5% CO2 incubator. Infected cells were incubated with test compounds for another 48 hours at 37° C. in 5A CO2. Cells were fixed with methanol and mouse monoclonal antibody 4G2 was used to detect DENV E protein, which was quantified using a secondary anti-mouse antibody conjugated with horseradish peroxidase (HRP). Absorbance was read at 450 nm and dose-response curve was plotted accordingly. The 50% effective concentration (EC50), that is, the concentration of the test compound that decreased the level of viral E protein production by 50%, was calculated by nonlinear regression analysis.

[7] = radiolabeled castanospermine, PO or IV, within 24 hr
[8] = celgosivir 10 mg/day for 14 days
[9] = celgosivir 20 mg/day for 14 days
[10] = celgosivir 40 mg/day for 14 days
[11] = celgosivir 80 mg/day for 14 days
[12] = celgosivir 160 mg/day for 14 days
[13] = celgosivir 240 mg/day for 14 days
[14] = celgosivir 360 mg/day for 14 days
[15] = celgosivir 450 mg/day for 14 days

O[C@H]1[C@H](O)[C@@H](O)CN2CC[C@H](O)[C@H]12 [Castanospermine]
gastrointestinal effects ([1]; 2 g/kg, sucrose- and starch containing diets): severe diarrhea and high intestinal bacterial counts | GI toxicity ([1]; diet of proteins, vitamins and glucose without sucrose or complex carbohydrates): ameliorated | pEC50 [2]: 4.85 | variability in exposure between subjects [3]: small to moderate | mean Cmax in the portal vein ([4]; 400 mg/kg celgosivir PO): 105600 ng/mL | AUC 0-60 min ([4]; portal vein, 400 mg/kg celgosivir PO): 63900 ng·h/mL | route of excretion of radioactivity [4, 7]: majority of radioactivity was detected within urine | urinary radioactivity identified as castanospermine [4, 7]: more than 92% | AUCss [5, 8]: 1000 ng·h/mL | Cmin,ss [5, 8]: 8 ng/mL | t1/2 [5, 8]: 13 h | tmax [5, 8]: 0.7 h | AUCss [5, 9]: 1750 ng·h/mL | Cmin,ss [5, 9]: 11 ng/mL | t1/2 [5, 9]: 27 h | tmax [5, 9]: 1 h | AUCss [5, 10]: 3610 ng·h/mL | Cmin,ss [5, 10]: 23 ng/mL | t1/2 [5, 10]: 30 h | tmax [5, 10]: 1 h | AUCss [5, 11]: 6530 ng·h/mL | Cmin,ss [5, 11]: 29 ng/mL | t1/2 [5, 11]: 16 h | tmax [5, 11]: 0.3 h | AUCss [5, 12]: 13300 ng·h/mL | Cmin,ss [5, 12]: 70 ng/mL | t1/2 [5, 12]: 21 h | tmax [5, 12]: 0.8 h | AUCss [5, 13]: 21500 ng·h/mL | Cmin,ss [5, 13]: 110 ng/mL | t1/2 [5, 13]: 16 h | tmax [5, 13]: 0.6 h | AUCss [5, 14]: 32100 ng·h/mL | Cmin,ss [5, 14]: 179 ng/mL | t1/2 [5, 14]: 15 h | tmax [5, 14]: 0.7 h | AUCss [5, 15]: 39800 ng·h/mL | Cmin,ss [5, 15]: 191 ng/mL | t1/2 [5, 15]: 14 h | excretion and metabolites ([5]; humans): excreted unchanged in the urine, with no other metabolites detected | pEC50 [6]: ~4.68
